# Laboratory results from article PMC9767854, “Discovery and mechanism studies of a novel ATG4B inhibitor Ebselen by drug repurposing and its anti-colorectal cancer effects in mice” (Cell & Bioscience, 2022).
# Key:
# ATG4B KO HCT116 = test: Cell viability by CCK-8 assay, ATG4B KO HCT116; assay type: cell-based
# Protocol: WT/ATG4B KO HCT116, WT/ATG4B KO SW620 and WT/ATG4B KO RKO cells were seeded in 96-well plate at 1000–1500 cells per well for cell viability assay, and seed in 6-well plate at 1 × 10^5 cells per well for cell number counting. After 12 h, the indicated drugs were added to the medium and cultured for another 96 h. Total viable cell numbers were counted by a cell counter (BioRAD), and cell viability was determined by cell-count-8 assay kit (CCK-8, Bimake, B34304) according to the manufacturer’s protocol.
# SW620 = test: Autophagy flux by LC3B-II western blot in SW620; assay type: cell-based; conditions: Ebselen 10 μM with CQ 40 μM
# Protocol: Fig. 5 Ebselen suppresses autophagy flux via inhibition of ATG4B. A, B HeLa cells were treated with Torin 1 (2 μM) or CQ (40 μM) and detected by western blot. C, D SW620 cells were transduced with sgCon and sgATG4B lentiviruses, respectively. Then cells were treated with CQ (40 μM) and detected by western blot. E, F HCT116 were treated with Ebselen (5 and 10 μM) or CQ (40 μM) and subjected to western blot. G, H SW620 were treated with Ebselen (10 μM) or CQ (40 μM) and western blotting was carried out to detect the protein levels. I, J Immunofluorescence analysis of endogenous LC3B in HCT116 treated with Ebselen (10 μM) or CQ (40 μM). Dots numbers for LC3B were derived from counting at least 20 cells and 5 fields from three independent replicated experiments. Bar = 10 μm. K HCT116 cells were treated with 2 μM Torin 1 in the presence or absence of 10 μM Ebselen for 12 h, then the level ratio of long-lived proteins was measured by flow cytometry
# Immunoblotting assay was performed reportedly previously. Commonly, cells were lysed in ice-cold RIPA lysis buffer (Beyotime, P0013B) supplemented with Pierce™ protease inhibitor tablet (ThermoFisher Scientific, A32965). […]
# [1] = target: T1, ATG4B (cell lysates from ATG4B-Flag 293 T) (Homo sapiens, UniProt Q9Y4P1); test: In vitro cleavage assay of LC3B-GST with ATG4B-overexpressing cell lysates; assay type: biochemical; conditions: compounds 10 μM, 30 min at 37 °C
# T1 construct: expressed in transfected cells; host or cells: 293T (ATG4B-Flag 293 T line)
# Protocol: A, B Cell lysates (1.5 μg) from ATG4B-Flag 293 T were incubated with different compounds (10 μM) for 30 min at 37 °C, then recombinant LC3B-GST (3 μg) were added up to 20 μl and inhibitions were detected by SDS-PAGE and CBB staining (A). B Statistical chart of gel results of three repeated experiments. Ebselen was abbreviated as Ebs, the same below. CON as control without lysate, NC as negative control without compound.
# HCT116 cells = test: Long-lived protein degradation assay; assay type: cell-based; conditions: 10 μM Ebselen, 2 μM Torin 1, 12 h
# Protocol: Long-lived protein degradation assay was performed referring to the reported protocol. In brief, HCT116 cells were seeded in 6-well plates and cultured overnight, and then incubated with L-methionine-free DMEM (Thermo Fisher Scientific, 21,013,024) supplemented with 10% dialyzed FBS (Biological Industries, 2,148,391) for 30 min at 37℃ for depleting the methionine reserve. Subsequently, the cells were incubated with medium containing 50 μM AHA (MCE, HY-140346A) for 18 h to label AHA on proteins. After 2 h incubation with 10 × L-methionine to chase out the short-lived AHA-labeled proteins, cells were treated with compounds as indicated in regular medium for 12 h. Then the cells were harvested, fixed and permeabilized sequentially until they were incubated in the click reaction master mix (50 μM TAMRA alkyne [AAT Bioquest, AAT-487], 1 mM TCEP [MCE, HY-W011500], 100 μM TBTA [GLPBIO, GC45003], 1 mM CuSO4 [Sangon Biotech, C3008] in PBS) in the dark for 2 h. Finally, cells were washed and suspended in 500 μl PBS and analyzed by flow cytometry (BECKMAN, CytoFLEX S).
# ATG4B [2] = target: T2, ATG4B (Homo sapiens, UniProt Q9Y4P1); test: Gel-based assay (SDS-PAGE and CBB staining of FRET-GATE-16 cleavage); assay type: biochemical; conditions: 1 μM
# T2 construct: 6xHis; made in house; host or cells: E. coli BL21(DE3)
# T2 sequence (Q9Y4P1 1-393): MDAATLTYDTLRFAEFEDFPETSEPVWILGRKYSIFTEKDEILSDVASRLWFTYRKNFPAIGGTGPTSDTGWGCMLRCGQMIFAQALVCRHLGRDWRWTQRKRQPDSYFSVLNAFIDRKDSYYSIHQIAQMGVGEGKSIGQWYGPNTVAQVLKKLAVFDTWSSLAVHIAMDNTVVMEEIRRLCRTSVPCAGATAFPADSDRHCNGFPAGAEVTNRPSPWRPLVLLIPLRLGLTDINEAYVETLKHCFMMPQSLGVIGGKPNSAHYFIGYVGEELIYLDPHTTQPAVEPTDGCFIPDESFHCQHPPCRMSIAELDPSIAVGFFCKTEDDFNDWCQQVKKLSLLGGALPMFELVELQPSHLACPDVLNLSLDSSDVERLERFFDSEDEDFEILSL
# Protocol: Taking ATG4B as the target, we used the high-throughput FRET-based assay to screen the FDA-approved drugs library containing 1600 compounds (Fig. 1A). […] (Additional file 1: Figure S1C). Then twenty-four candidate compounds (marked in red) were noted through an initial screening at 10 μM (Fig. 1B). To further validate their inhibitory effect, a more rigorous and authentic approach as gel-based assay was carried out (Fig. 1C). The brake of the cleavage reaction of the substrate FRET-GATE-16 was very intuitively reflective of the compounds’ inhibitory effect on the ATG4B enzymatic activity. […] This was also verified in the FRET- and gel-based full concentration-response plot of compound 669 (Fig. 1D, E).
# Fig. 1 Screening of ATG4B inhibitors based on the approved drugs library by FRET assay. A Illustration of the FRET-based high-throughput screening platform for ATG4B inhibitors. B Scatter plot of inhibition rate of approved library for ATG4B based on FRET assay. Candidate compounds were marked in red. […] C The inhibitory effect of twenty-four candidate compounds (10 μM) were detected by SDS-PAGE and Coomassie brilliant blue (CBB) staining according to the cleavage of substrates. […] D The dose-dependent inhibition of compound 669 (Ebselen) were determined by SDS-PAGE.
# ATG4B [3] = target: T2, ATG4B; test: ATG4B oligomerization by non-reducing electrophoresis; assay type: biochemical; conditions: ATG4B 5 μM; Ebselen 5, 25, 50 μM or FMK-9a 50 μM; 0.5, 1, 3 h
# Description: The aggregates formed could be reversibly regulated by a reducing agent, because an assay to add dithiothreitol (DTT) into the reaction was operated. […] Furthermore, we also evaluated the redox properties of analogues on ATG4B.
compound,measurement,setting,value
O=c1c2ccccc2[se]n1-c1ccccc1 [Ebselen],effect on viability of ATG4B deficient cells,ATG4B KO HCT116; Fig. 6F,almost no effect
same,IC50,"ATG4B KO HCT116; Homo sapiens, HCT-116, CCK-8, 96 h",28.1 µM
same,autophagic flux (LC3B-II),SW620,inhibition of autophagic flux
same,cleavage activity of ATG4B on LC3B-GST in cell lysates,[1],strongly suppressed
same,autophagic long-lived protein degradation induced by Torin 1,HCT116 cells,significantly inhibited
same,inhibition of ATG4B in gel,ATG4B [2],complete inhibition
same,ATG4B oligomerization,ATG4B [3],oligomerization occurred
